Results from patent publication US20250008959A1, “HERBICIDES AND USE THEREOF” (Projini Agchem LTD, priority 2021, published 2025).
Read-outs that look alike come from different tables or passages of the source.

How the values were obtained:
[1] = molecular target: T1, OASS-SAT complex (AtOASS with SAT-derived peptide) (Arabidopsis thaliana, UniProt P47998); experiment: Fluorescence polarization (FP) competition with FITC-labeled SAT-derived peptide bound to OASS; assay type: binding; details: competition with FITC-SAT peptide 200 nM, OASS 2.2 μM; for IC50: single site inhibition model
T1 construct: GST (N, cleaved yes); made in house; host or cells: E. coli Rosetta (DE3)
T1 sequence (P47998 whole entry, one chain of several): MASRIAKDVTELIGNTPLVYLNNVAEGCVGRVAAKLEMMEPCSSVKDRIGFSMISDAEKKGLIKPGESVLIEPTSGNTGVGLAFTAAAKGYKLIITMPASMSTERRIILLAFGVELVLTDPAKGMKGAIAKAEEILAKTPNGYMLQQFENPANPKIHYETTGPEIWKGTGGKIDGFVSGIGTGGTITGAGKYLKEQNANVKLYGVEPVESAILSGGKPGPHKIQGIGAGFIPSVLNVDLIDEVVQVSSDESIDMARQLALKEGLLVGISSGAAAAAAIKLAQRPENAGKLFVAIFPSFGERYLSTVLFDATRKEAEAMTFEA
Method: Molecules were also tested for their ability to compete with the OASS binding to the SAT-derived peptide via a fluorescence polarization (FP) competition assay wherein the N-terminus labeled peptide was incubated with the AtOASS (see Examples section below). High FP values correspond to the peptide-bound state (low molecule concentrations) and low FP values correspond to the peptide-free state (low FP values). To extract the IC50, the FP data were fitted to a single site inhibition model in PRISM by GraphPad Software. The corresponding IC50 values were extracted, whereas low IC50 values correspond to molecule that better competes with the peptide binding to AtOASS. Fluorescence polarization (FP) measurements were made on samples arrayed in 96-well plates by using BioTek H1 Synergy instrument equipped with FP module. […] The peptide in a concentration of 200 nM was incubated with OASS at a concentration of 2.2 μM in each well. Variable concentrations of each molecule starting from 100 μM down to 0.048 μM were added to evaluate the ability of each molecule to compete off the FITC labeled peptide bound to OASS. Fluorescence experiments were executed with an Em/Exc wavelengths of 480/520 nm. All measurements were done in triplicate. Experimental polarization data from simple and competitive binding experiments were fitted using GraphPad Prism, with error bars representing SD. Molecules were also tested for their ability to compete with the OASS binding to the SAT-derived peptide via a fluorescence polarization (FP) competition assay. The N-terminus labeled peptide was incubated with the AtOASS in each of the wells in a 96-well plate. Various concentrations of the molecules were added and the FP values were recorded. High FP values correspond to the peptide-bound state (low molecule concentrations) and low FP values correspond to the peptide-free state (low FP values). To extract the IC50, the FP data were fitted to a single site inhibition model in graphpad prism. The corresponding IC50 values were extracted. Low IC50 values correspond to molecule that better competes with the peptide binding to AtOASS.

Arabidopsis thaliana [2] = experiment: Root elongation in plates (in planta root elongation assay); assay type: in vivo; details: 168 h, A. thaliana on MS medium plates, 7 days, read-out: Root-growth inhibition %
Method: 6-well plates were prepared in a biological hood with sterile half Murashige and Skoog mineral medium (MS; Duchefa, Haarlem, Netherlands) containing 1% sucrose (w/v), pH 5.8. Tested molecules were dissolved in 50 mM DMSO and diluted to various concentrations 1,000-fold greater than the final desired concentration the MS medium maintaining a final concentration of 0.1% DMSO. MS medium with 0.1% DMSO was used as a negative control. After 7 days the plates were scanned and the root length was calculated using the imageJ software. […] Further sterilization was done by washing the seeds with 50% hypochlorite and 0.2% Triton x-100 for 10 minutes followed by five cycles of washing with sterile water. Six seeds were placed in each well, and the plates were covered and sealed with parafilm. Plates were placed vertically at 4° C. for two days and then transferred to a growth chamber for seven days (22-24° C.) at day/light cycles of 16/8 hours. Following the in vitro evaluation, selected molecules were tested for their ability to inhibit A. thaliana root elongation on agar plates. Seeds were plated on medium containing the molecules dissolved in the indicated concentrations and root length was measured after 6 or 7 days when the root in the non-treated plate reached the end of the well.

Amaranthus palmeri = experiment: Pre-emergence assay in pots; assay type: in vivo; details: pots sprayed with 2 ml, 5 mM, monitored 21 days
Method: (§1) 7×7 cm pots were prepared with 20% soil and 80% sand. Trifolium alexandrium (16 seeds), Lolium rigidum (25 seeds), Solanum nigrum (25 seeds), Amaranthus palmeri (40 seeds) or Sinapis arvensis (12 seeds) were sowed and 2 cm of strained sand was used to cover the seeds. The pots were placed in the growth room under a lighting regime of 16 hours of light and 8 hours in the dark at 23° C. The day after (except for the Solanum and Amaranthus 4-5 days after), the pots were sprayed in a chemical hood at a 45° angle with 2 ml spray solution containing 1:10 acetone or phosphate buffer dissolved active ingredient in tap water to a final concentration of 5 mM. Every 2-3 days the pots were irrigated with tap water.
(§2) Pre-emergence herbicidal activity was determined by monitoring plant growth in pots. Molecules were dissolved at the indicated concentrations below and volume of 2 ml was sprayed onto the soil, and plant growth was monitored for 21 days.

[3] = molecular target: T2, AtOASS (O-acetyl serine sulfhydrylase from Arabidopsis thaliana) (Arabidopsis thaliana, UniProt P47998); experiment: Isothermal titration calorimetry (ITC) binding to OASS; details: OASS titrated into compound in ITC cell; single binding model
T2 construct: GST (N, cleaved yes); made in house; host or cells: E. coli Rosetta (DE3)
T2 sequence (P47998 whole entry): as the sequence (P47998 whole entry, one chain of several) above
Text: To evaluate the ability of the molecules to bind AtOASS (O-acetyl serine sulfhydrylase from Arabidopsis thaliana), the protein was placed in the ITC syringe and was titrated with the molecules that were placed in the ITC cell (see Examples section below). The direct dissociation binding constant (Kd) was then extracted from the binding curve using a single binding model, wherein a low Kd value corresponds to a stronger binding affinity.
To evaluate the binding of the small molecules to the enzyme OASS, the purified protein was placed in a 6-8 MWCO dialysis bag in 30 mM phosphate buffer, 30 mM NaCl, 1 mM TCEP, and 5% dimethyl sulfoxide. Sequential buffer exchange dialyses were executed for 12 hours each at 4° C. until dilution of >10,000 was achieved. Before the execution of the ITC binding experiment, the OASS was placed in the ITC syringe at a concentration of 400 μM and each of the small molecules was dissolved in the same dialysis buffer to a final concentration of 40 μM in the ITC cell. ITC experiments were conducted by titrating the OASS to the compounds in the cell. The ITC binding constant was evaluated using the build-in analysis software.
The designed de-novo herbicidal compounds were synthesized and evaluated for their in vitro and in planta activity. After dissolving the molecules to a stock of 50 mM in DMSO, binding and competition with the SAT-derived peptides were evaluated using ITC and FP. ITC measures the direct heat change occurring due to the interaction of a pair of molecules. ITC has certain advantages, such as the capability to detect a relatively broad range of binding affinities, being a label-free method, and providing a wide set of interaction parameters, such as affinity, stoichiometry, enthalpy, and entropy of binding. To evaluate the ability of the molecules to bind AtOASS, the protein was placed in the ITC syringe and was titrated with the molecules that were placed in the ITC cell. The direct dissociation binding constant (Kd) was then extracted from the binding curve using a single binding model. Two consecutive experiments were combined using the built in ITC module to enable better quantification. A low Kd value corresponds to a stronger binding affinity.

Trifolium alexandrium = experiment: Pre-emergence assay in pots; assay type: in vivo; details: pots sprayed with 2 ml, 5 mM, monitored 21 days
Method: as §1, §2

Sinapis arvensis = experiment: Pre-emergence assay in pots; assay type: in vivo; details: pots sprayed with 2 ml, 5 mM, monitored 21 days
Method: as §1, §2

Solanum nigrum = experiment: Pre-emergence assay in pots; assay type: in vivo; details: pots sprayed with 2 ml, 5 mM, monitored 21 days
Method: as §1, §2

Arabidopsis thaliana [4] = experiment: L-cysteine recovery root elongation assay; assay type: in vivo; details: for IC50: Arabidopsis thaliana, read-out: IC50 of A. thaliana growth inhibition
Method: For the L-cysteine recovery root elongation assay, 6-well plates were prepared in a biological hood with sterile half Murashige and Skoog mineral medium (MS; Duchefa, Haarlem, Netherlands) containing 1% sucrose (w/v), pH 5.8. A stock of 10 mM L-cysteine in DDW was prepared and diluted to a final concentration of 0.03 mM into the MS medium in the presence of 25 to 1.56 μM of PJL 109. The MS medium maintained a final concentration of 0.1% DMSO. MS medium with 0.1% DMSO and 0.03 mM L-cysteine was used as a negative control. After 7 days the plates were scanned and the root length was calculated using the imageJ software.
Arabidopsis thaliana seeds were washed with 70% ethanol for 1 minute and then with sterile water. Further sterilization was done by washing the seeds with 50% hypochlorite and 0.2% Triton x-100 for 10 minutes followed by five cycles of washing with sterile water. Six seeds were placed in each well, and the plates were covered and sealed with parafilm. Plates were placed vertically at 4° C. for two days and then transferred to a growth chamber for seven days (22-24° C.) at day/light cycles of 16/8 hours.

Lolium rigidum = experiment: Pre-emergence assay in pots; assay type: in vivo; details: pots sprayed with 2 ml, 5 mM, monitored 21 days
Method: as §1, §2

| SMILES | FP % inhibition [1] | IC50 [1] | Kd [3] | inhibition at 50 µM (Arabidopsis thaliana [2]) | Pre-emergence assay Germination inhibition on (%) (Amaranthus palmeri) | Pre-emergence assay Growth inhibition on (%) (Amaranthus palmeri) | Pre-emergence assay Germination inhibition on (%) (Trifolium alexandrium) | Pre-emergence assay Growth inhibition on (%) (Trifolium alexandrium) | Pre-emergence assay Germination inhibition on (%) (Sinapis arvensis) | Pre-emergence assay Growth inhibition on (%) (Sinapis arvensis) | Pre-emergence assay Germination inhibition on (%) (Solanum nigrum) | Pre-emergence assay Growth inhibition on (%) (Solanum nigrum) | effect of added cysteine on the inhibition by the compound (Arabidopsis thaliana [4]; 0.03 mM L-cysteine on agar plates, dose-response, result in words) | IC50 (Arabidopsis thaliana [4]; 0 mM L-cysteine (no external addition of cysteine)) | IC50 (Arabidopsis thaliana [4]; 0.03 mM L-cysteine in the medium) | Pre-emergence assay Germination inhibition on (%) (Lolium rigidum) | Pre-emergence assay Growth inhibition on (%) (Lolium rigidum) |
| --- | --- | --- | --- | --- | --- | --- | --- | --- | --- | --- | --- | --- | --- | --- | --- | --- | --- |
| O=C(O)c1cc(F)ccc1NS(=O)(=O)c1cnc(-c2ccccc2)s1 [PJL-47] | 16% | 68 µM | 6 µM | 88% | 66% | 20% | – | – | – | – | – | – | – | – | – | – | – |
| COc1ccc(-c2csc(NC(=O)c3ccccc3-c3ccccc3C(=O)O)n2)cc1 [PJL-61] | 43% | 4.7 µM | 0.4 µM | 95% | 33% | 0% | 70% | 60% | – | – | – | – | – | – | – | – | – |
| COc1ccc(C(=O)O)c(NS(=O)(=O)c2cnc(-c3ccc(F)cc3)s2)c1 [PJL-79] | 18% | 55 µM | 7.1 µM | 97% | – | – | – | – | 95% | 90% | – | – | – | – | – | – | – |
| O=C(O)c1ccccc1-c1ocnc1C(=O)Nc1nc(-c2ccc(Cl)cc2Cl)cs1 [PJL-117] | 10% | 248 µM | – | 100% | – | – | – | – | 90% | 80% | – | – | – | – | – | 0% | 60% |

More lines, main results first:

| FP % inhibition [1] | IC50 [1] | Kd [3] | SMILES | inhibition at 50 µM (Arabidopsis thaliana [2]) | Pre-emergence assay Germination inhibition on (%) (Amaranthus palmeri) | Pre-emergence assay Growth inhibition on (%) (Amaranthus palmeri) | Pre-emergence assay Germination inhibition on (%) (Trifolium alexandrium) | Pre-emergence assay Growth inhibition on (%) (Trifolium alexandrium) | Pre-emergence assay Germination inhibition on (%) (Sinapis arvensis) | Pre-emergence assay Growth inhibition on (%) (Sinapis arvensis) | Pre-emergence assay Germination inhibition on (%) (Solanum nigrum) | Pre-emergence assay Growth inhibition on (%) (Solanum nigrum) | effect of added cysteine on the inhibition by the compound (Arabidopsis thaliana [4]; 0.03 mM L-cysteine on agar plates, dose-response, result in words) | IC50 (Arabidopsis thaliana [4]; 0 mM L-cysteine (no external addition of cysteine)) | IC50 (Arabidopsis thaliana [4]; 0.03 mM L-cysteine in the medium) | Pre-emergence assay Germination inhibition on (%) (Lolium rigidum) | Pre-emergence assay Growth inhibition on (%) (Lolium rigidum) |
| --- | --- | --- | --- | --- | --- | --- | --- | --- | --- | --- | --- | --- | --- | --- | --- | --- | --- |
| 48% | 5.4 µM | 0.07 µM | O=C(O)c1ccccc1-c1ccccc1C(=O)Nc1nc(-c2ccc(Cl)cc2Cl)cs1 [PJL-109] | 89% | – | – | – | – | – | – | 63% | 0% | partially reverses the germination inhibition effect | 1.7 µM | 4.9 µM | – | – |
| 41% | 3.6 µM | 0.5 µM | COc1ccc(-c2csc(NC(=O)c3ccccc3-c3ccccc3C(=O)O)n2)c(Cl)c1 [PJL-116] | 92% | – | – | 75% | 80% | – | – | – | – | – | – | – | – | – |
